# From the supplement of paper PMC6045584
# ± gives the standard deviation of the averaged measurements.
# Compound: COc1ccc(C2=N[C@@H](c3ccc(Cl)cc3)[C@@H](c3ccc(Cl)cc3)N2C(=O)N2CCNC(=O)C2)c(OC(C)C)c1 [NUTLIN3]
# Test: surviving fraction relative to DMSO-only wells; higher = less growth inhibition
# Conditions: 10 nM; exposure time: 5 days
# In short: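 For each tumour cell line, log-phase cells were put into 384-well plates at 250–500 cells per well, then after 24 hours exposed continuously for five days to inhibitors at 0.5, 1, 5, 10, 50, 100, 500 and 1000 nM. Viability was assessed by CellTiter-Glo luminescence, with surviving fraction expressed relative to the median of DMSO-only wells. Lines were screened three times and retained only if replicate Pearson r exceeded 0.7 and median Z' exceeded 0.3.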
row,Test System,surviving fraction
1,NOS1 BONE,1.17 ± 0.16

# Same assay, conditions: 50 nM; exposure time: 5 days
row,Test System,surviving fraction
1,SCC36 HEADNECK,1.19 ± 0.069
2,OS25HAL BONE,1.06 ± 0.0081
3,HCC1806 BREAST,1.07 ± 0.1
4,HU09 BONE,1.04 ± 0.069
5,SG43 HEADNECK,0.877 ± 0.14
6,U2OS BONE,1.04 ± 0.023
7,HOSMNG BONE,1.09 ± 0.025
8,CASKI CERVIX,1.04 ± 0.074
9,SUM44 BREAST,1.09 ± 0.055
10,MDAMB231 BREAST,1.06 ± 0.017
11,CAL51 BREAST,1.05 ± 0.054
12,MDAMB436 BREAST,0.924 ± 0.074
13,HSSYII SYNOVIAL,0.942 ± 0.053
14,RDES SOFT TISSUE,1.17 ± 0.13
15,MDAMB157 BREAST,1.02 ± 0.075
16,CHLA90 AUTONOMIC GANGLIA,0.987 ± 0.049
17,CADOES1 SOFT TISSUE,0.841 ± 0.077
18,SG31 HEADNECK,0.854 ± 0.13
19,SCC47 HEADNECK,1.13 ± 0.051
20,S68 BREAST,1.28 ± 0.18
21,SNU475 LIVER,1 ± 0.028

row,Test System,surviving fraction
1,22RV1 PROSTATE,0.981 ± 0.079
2,SG32 HEADNECK,1.18 ± 0.035
3,SCC003 HEADNECK,1.06 ± 0.062
4,JURKAT HAEMATOPOIETIC AND LYMPHOID TISSUE,1.05 ± 0.078
5,HT1080 SOFT TISSUE,0.9757 ± 0.0085
6,CAL120 BREAST,0.9877 ± 0.005
7,MCF7 BREAST,0.939 ± 0.021
8,MFM223 BREAST,1.12 ± 0.045
9,LNCAP PROSTATE,0.956 ± 0.073
10,PCI30 HEADNECK,1.14 ± 0.062
11,OSHN BONE,1.09 ± 0.058
12,SG28 HEADNECK,1.03 ± 0.14
13,HOS BONE,1.06 ± 0.02
14,HUO3N1 BONE,1.09 ± 0.032
15,BT20 BREAST,1.05 ± 0.24
16,SJSA1 BONE,1.03 ± 0.023
17,JIMT1 BREAST,1.08 ± 0.037
18,HCC78 LUNG,0.946 ± 0.12
19,NY BONE,1.05 ± 0.048
20,NOS1 BONE,1.14 ± 0.071

# Same assay, conditions: 100 nM; exposure time: 5 days
row,Test System,surviving fraction
1,SCC36 HEADNECK,1.17 ± 0.044
2,OS25HAL BONE,1.064 ± 0.0045
3,HCC1806 BREAST,1.05 ± 0.17
4,HU09 BONE,1.08 ± 0.11
5,SG43 HEADNECK,0.778 ± 0.24
6,U2OS BONE,1.04 ± 0.028
7,HOSMNG BONE,1.12 ± 0.013
8,CASKI CERVIX,1.05 ± 0.026
9,SUM44 BREAST,1.06 ± 0.017
10,MDAMB231 BREAST,1.06 ± 0.02
11,CAL51 BREAST,1.01 ± 0.038
12,MDAMB436 BREAST,0.895 ± 0.12
13,HSSYII SYNOVIAL,0.91 ± 0.035
14,RDES SOFT TISSUE,1 ± 0.17
15,MDAMB157 BREAST,1 ± 0.039
16,CHLA90 AUTONOMIC GANGLIA,1.01 ± 0.019
17,CADOES1 SOFT TISSUE,0.874 ± 0.037
18,SG31 HEADNECK,1.11 ± 0.23
19,SCC47 HEADNECK,1.16 ± 0.088
20,S68 BREAST,0.99 ± 0.07
21,SNU475 LIVER,1.03 ± 0.071

row,Test System,surviving fraction
1,22RV1 PROSTATE,1.01 ± 0.074
2,SG32 HEADNECK,1.31 ± 0.45
3,SCC003 HEADNECK,1.12 ± 0.07
4,JURKAT HAEMATOPOIETIC AND LYMPHOID TISSUE,1.03 ± 0.012
5,HT1080 SOFT TISSUE,0.929 ± 0.01
6,CAL120 BREAST,0.9757 ± 0.0032
7,MCF7 BREAST,0.952 ± 0.051
8,MFM223 BREAST,1.12 ± 0.073
9,LNCAP PROSTATE,0.803 ± 0.089
10,PCI30 HEADNECK,1.09 ± 0.05
11,OSHN BONE,1.07 ± 0.033
12,SG28 HEADNECK,1.02 ± 0.085
13,HOS BONE,1.05 ± 0.01
14,HUO3N1 BONE,1.03 ± 0.032
15,BT20 BREAST,1.07 ± 0.23
16,SJSA1 BONE,1.04 ± 0.02
17,JIMT1 BREAST,1.06 ± 0.016
18,HCC78 LUNG,0.877 ± 0.11
19,NY BONE,1.01 ± 0.034
20,NOS1 BONE,1.15 ± 0.1

# Same assay, conditions: 500 nM; exposure time: 5 days
row,Test System,surviving fraction
1,SCC36 HEADNECK,1.04 ± 0.1
2,OS25HAL BONE,1.052 ± 0.0056
3,HCC1806 BREAST,1.05 ± 0.16
4,HU09 BONE,1.04 ± 0.14
5,SG43 HEADNECK,0.806 ± 0.24
6,U2OS BONE,0.974 ± 0.022
7,HOSMNG BONE,1.12 ± 0.026
8,CASKI CERVIX,0.972 ± 0.042
9,SUM44 BREAST,1.07 ± 0.084
10,MDAMB231 BREAST,1 ± 0.026
11,CAL51 BREAST,0.816 ± 0.1
12,MDAMB436 BREAST,0.881 ± 0.041
13,HSSYII SYNOVIAL,0.676 ± 0.058
14,RDES SOFT TISSUE,1.4 ± 0.22
15,MDAMB157 BREAST,0.999 ± 0.051
16,CHLA90 AUTONOMIC GANGLIA,1.06 ± 0.022
17,CADOES1 SOFT TISSUE,0.741 ± 0.014
18,SG31 HEADNECK,0.906 ± 0.038
19,SCC47 HEADNECK,1.07 ± 0.052
20,S68 BREAST,0.936 ± 0.25
21,SNU475 LIVER,1.021 ± 0.009

row,Test System,surviving fraction
1,22RV1 PROSTATE,0.95 ± 0.062
2,SG32 HEADNECK,0.895 ± 0.29
3,SCC003 HEADNECK,1.09 ± 0.089
4,JURKAT HAEMATOPOIETIC AND LYMPHOID TISSUE,1.02 ± 0.022
5,HT1080 SOFT TISSUE,0.797 ± 0.024
6,CAL120 BREAST,0.981 ± 0.012
7,MCF7 BREAST,0.865 ± 0.013
8,MFM223 BREAST,1.12 ± 0.063
9,LNCAP PROSTATE,0.491 ± 0.12
10,PCI30 HEADNECK,1.02 ± 0.041
11,OSHN BONE,1.08 ± 0.034
12,SG28 HEADNECK,1.01 ± 0.11
13,HOS BONE,1.057 ± 0.0091
14,HUO3N1 BONE,1.01 ± 0.068
15,BT20 BREAST,1.15 ± 0.25
16,SJSA1 BONE,0.823 ± 0.011
17,JIMT1 BREAST,1.06 ± 0.043
18,HCC78 LUNG,0.889 ± 0.12
19,NY BONE,0.925 ± 0.036
20,NOS1 BONE,1.08 ± 0.042

# Same assay, conditions: 1000 nM; exposure time: 5 days
row,Test System,surviving fraction
1,SCC36 HEADNECK,1.1 ± 0.051
2,OS25HAL BONE,1.06 ± 0.013
3,HCC1806 BREAST,1.17 ± 0.2
4,HU09 BONE,1.03 ± 0.085
5,SG43 HEADNECK,0.565 ± 0.1
6,U2OS BONE,0.897 ± 0.036
7,HOSMNG BONE,1.13 ± 0.023
8,CASKI CERVIX,0.988 ± 0.05
9,SUM44 BREAST,0.964 ± 0.063
10,MDAMB231 BREAST,0.995 ± 0.022
11,CAL51 BREAST,0.707 ± 0.09
12,MDAMB436 BREAST,0.941 ± 0.074
13,HSSYII SYNOVIAL,0.43 ± 0.04
14,RDES SOFT TISSUE,1.25 ± 0.17
15,MDAMB157 BREAST,1.04 ± 0.074
16,CHLA90 AUTONOMIC GANGLIA,1.02 ± 0.066
17,CADOES1 SOFT TISSUE,0.517 ± 0.017
18,SG31 HEADNECK,0.92 ± 0.057
19,SCC47 HEADNECK,1.14 ± 0.099
20,S68 BREAST,1.01 ± 0.22

row,Test System,surviving fraction
1,SNU475 LIVER,1 ± 0.02
2,22RV1 PROSTATE,0.777 ± 0.047
3,SG32 HEADNECK,0.61 ± 0.07
4,SCC003 HEADNECK,1.07 ± 0.13
5,JURKAT HAEMATOPOIETIC AND LYMPHOID TISSUE,1.03 ± 0.013
6,HT1080 SOFT TISSUE,0.58 ± 0.046
7,CAL120 BREAST,0.977 ± 0.029
8,MCF7 BREAST,0.85 ± 0.039
9,MFM223 BREAST,1.07 ± 0.068
10,LNCAP PROSTATE,0.289 ± 0.011
11,PCI30 HEADNECK,1.04 ± 0.092
12,OSHN BONE,1.07 ± 0.029
13,SG28 HEADNECK,0.919 ± 0.1
14,HOS BONE,1.09 ± 0.021
15,HUO3N1 BONE,1.04 ± 0.033
16,BT20 BREAST,1.12 ± 0.18
17,SJSA1 BONE,0.568 ± 0.027
18,JIMT1 BREAST,1.04 ± 0.018
19,HCC78 LUNG,0.941 ± 0.07
